Several values for one entry are separate records, joined by “and”; a condition that tells them apart may be missing. Equal entries are not always repeated. Toxic doses and inconclusive results are not listed.
System: P388 leukemia ip, CD2F1 mice, survival T/C
Assay: NCI In Vivo Anticancer Drug Screen. Data for tumor model P388 Leukemia (intraperitoneal) in CD2F1 (CDF1) mice
Conditions: endpoint: median survival time, higher = longer survival
Procedure, shortened: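 Mice carrying the transplanted tumor received test compound or vehicle. Survival was recorded in each group, and the value is the treated-group measurement divided by that of the vehicle-treated control group.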

[1] = dose: 50.0 mg/kg/injection, schedule: Q01DX005 (ip), vehicle: saline with Tween-80
[2] = dose: 100.0 mg/kg/injection, schedule: Q01DX005 (ip), vehicle: saline with Tween-80
[3] = dose: 200.0 mg/kg/injection, schedule: Q01DX005 (ip), vehicle: saline with Tween-80
[4] = dose: 50.0 mg/kg/injection, schedule: Q01DX009 (ip), vehicle: saline with Tween-80
[5] = dose: 100.0 mg/kg/injection, schedule: Q01DX009 (ip), vehicle: saline with Tween-80
[6] = dose: 200.0 mg/kg/injection, schedule: Q01DX009 (ip), vehicle: saline with Tween-80
[7] = dose: 50.0 mg/kg/injection, schedule: Q01DX009 (ip), vehicle: Klucel (hydroxypropylcellulose) (HPC)
[8] = dose: 100.0 mg/kg/injection, schedule: Q01DX009 (ip), vehicle: Klucel (hydroxypropylcellulose) (HPC)
[9] = dose: 200.0 mg/kg/injection, schedule: Q01DX009 (ip), vehicle: Klucel (hydroxypropylcellulose) (HPC)
[10] = dose: 60.0 mg/kg/injection, schedule: Q01DX005 (ip), vehicle: saline with Tween-80
[11] = dose: 120.0 mg/kg/injection, schedule: Q01DX005 (ip), vehicle: saline with Tween-80
[12] = dose: 240.0 mg/kg/injection, schedule: Q01DX005 (ip), vehicle: saline with Tween-80

In the case of `O=c1c(CN(CCO)CCO)c(-c2ccccc2)sc2ccccc12`, the T/C (dose: 12.5 mg/kg/injection, schedule: Q04DX002 (ip), vehicle: saline with Tween-80) was 100 % of control, the T/C (dose: 25.0 mg/kg/injection, schedule: Q04DX002 (ip), vehicle: saline with Tween-80) was 100 % of control and the T/C (dose: 50.0 mg/kg/injection, schedule: Q04DX002 (ip), vehicle: saline with Tween-80) was 97 % of control. The T/C (dose: 100.0 mg/kg/injection, schedule: Q04DX002 (ip), vehicle: saline with Tween-80) was 91 % of control.

`CCc1ccc[n+](-c2nc3c([O-])n(C)c(=O)n(C)c-3n2)c1` was tested, and the T/C (dose: 100.0 mg/kg/injection, schedule: Q04DX003 (ip), vehicle: saline) was 91 % of control, the T/C (dose: 200.0 mg/kg/injection, schedule: Q04DX003 (ip), vehicle: saline) was 100 % of control and the T/C (dose: 400.0 mg/kg/injection, schedule: Q04DX003 (ip), vehicle: saline) was 94 % of control.

`CCCCCCCCCCCCCCCCCC(=O)[O][Sn]([CH2]CCC)([CH2]CCC)[O]C(=O)CCCCCCCCCCCCCCCCC` was tested, and the T/C (dose: 2.66 mg/kg/injection, schedule: Q04DX003 (ip), vehicle: other) was 109 % of control, the T/C (dose: 4.0 mg/kg/injection, schedule: Q04DX003 (ip), vehicle: other) was 106 % of control and the T/C (dose: 6.0 mg/kg/injection, schedule: Q04DX003 (ip), vehicle: other) was 109 % of control. For the same molecule, the T/C (dose: 9.0 mg/kg/injection, schedule: Q04DX003 (ip), vehicle: other) was 110 % of control.

With `CC(CCC(=O)O)(c1ccc(OC(=O)Nc2ccc(Br)cc2)cc1)c1ccc(OC(=O)Nc2ccc(Br)cc2)cc1` the T/C [1] was 102 % of control, the T/C [2] was 97 % of control and the T/C [3] was 100 % of control.

For `Nc1nc(Sc2ccccn2)ccc1[N+](=O)[O-]`, the T/C [4] was 91 % of control, the T/C [5] was 91 % of control and the T/C [6] was 102 % of control.

In the case of `O=C(NCc1ccccc1)C1C(=O)C(=O)N(Cc2ccccc2)C1=O` (configuration not stated), the T/C [7] was 105 % of control, the T/C [8] was 100 % of control and the T/C [9] was 107 % of control.

In the case of `NS(=O)(=O)c1ccc(NC(=O)CN(C(=O)C(F)(F)F)C2CCCC2)cc1`, the T/C [7] was 113 % of control, the T/C [8] was 109 % of control and the T/C [9] was 109 % of control.

With `O=c1oc2ccccc2cc1S(=O)(=O)c1ccccc1` the T/C [10] was 94 % of control, the T/C [11] was 91 % of control and the T/C [12] was 91 % of control.

`CCOc1ccc(/C=N/NC(=S)NC23CC4CC(CC(C4)C2)C3)cc1OCC` was tested, and the T/C (dose: 30.0 mg/kg/injection, schedule: Q01DX005 (ip), vehicle: saline with Tween-80) was 108 % of control, the T/C [10] was 102 % of control and 86 % of control and the T/C [11] was 90 % of control.

In the case of `CC1(C)C=C(O)C(=O)C(O)=C1`, the T/C (dose: 15.0 mg/kg/injection, schedule: Q01DX005 (ip), vehicle: Klucel (hydroxypropylcellulose) (HPC)) was 102 % of control, the T/C (dose: 30.0 mg/kg/injection, schedule: Q01DX005 (ip), vehicle: Klucel (hydroxypropylcellulose) (HPC)) was 102 % of control and the T/C (dose: 50.0 mg/kg/injection, schedule: Q01DX005 (ip), vehicle: Klucel (hydroxypropylcellulose) (HPC)) was 116 % of control. For the same molecule, the T/C (dose: 60.0 mg/kg/injection, schedule: Q01DX005 (ip), vehicle: Klucel (hydroxypropylcellulose) (HPC)) was 103 % of control.

With `Clc1ccccc1CN1COc2c(cc(Cl)c3cccnc23)C1` the T/C (dose: 100.0 mg/kg/injection, schedule: Q04DX003 (ip), vehicle: Klucel (hydroxypropylcellulose) (HPC)) was 95 % of control, the T/C (dose: 200.0 mg/kg/injection, schedule: Q04DX003 (ip), vehicle: Klucel (hydroxypropylcellulose) (HPC)) was 95 % of control and the T/C (dose: 400.0 mg/kg/injection, schedule: Q04DX003 (ip), vehicle: Klucel (hydroxypropylcellulose) (HPC)) was 95 % of control.

`CC(=O)c1cc(Cl)ccc1OCC(O)CNc1ccc(Cl)cc1C(=O)c1ccccc1` (configuration not stated) was tested, and the T/C [10] was 90 % of control, the T/C [11] was 92 % of control and the T/C [12] was 86 % of control.

For `CC(C)(C)C(S)CS` (configuration not stated), the T/C (dose: 12.5 mg/kg/injection, schedule: Q01DX005 (ip), vehicle: saline with Tween-80) was 104 % of control, the T/C (dose: 25.0 mg/kg/injection, schedule: Q01DX005 (ip), vehicle: saline with Tween-80) was 104 % of control and the T/C [1] was 101 % of control and 103 % of control.

`N/C(=N\OC(=O)NC(Cl)=C(Cl)Cl)c1cc(C(F)(F)F)cc(C(F)(F)F)c1` was tested, and the T/C [1] was 102 % of control, the T/C [2] was 102 % of control and the T/C [3] was 100 % of control.

For `Nc1cc2c(c[n+](CCCCCCCCCBr)c3ccccc23)c2ccccc12`, the T/C (dose: 1.56 mg/kg/injection, schedule: Q04DX003 (ip), vehicle: other) was 155 % of control, the T/C (dose: 3.13 mg/kg/injection, schedule: Q04DX003 (ip), vehicle: other) was 155 % of control and the T/C (dose: 6.25 mg/kg/injection, schedule: Q04DX003 (ip), vehicle: other) was 150 % of control.

For `O=[N+]([O-])c1cc2ccccc2c(O)c1O`, the T/C (dose: 12.5 mg/kg/injection, schedule: Q01DX009 (ip), vehicle: saline with Tween-80) was 95 % of control, the T/C (dose: 25.0 mg/kg/injection, schedule: Q01DX009 (ip), vehicle: saline with Tween-80) was 104 % of control and the T/C [4] was 118 % of control.

For `O=[N+]([O-])c1cccnc1S(=O)(=O)c1ncccn1`, the T/C (dose: 6.25 mg/kg/injection, schedule: Q01DX009 (ip), vehicle: Klucel (hydroxypropylcellulose) (HPC)) was 100 % of control, the T/C (dose: 12.5 mg/kg/injection, schedule: Q01DX009 (ip), vehicle: Klucel (hydroxypropylcellulose) (HPC)) was 110 % of control and the T/C (dose: 25.0 mg/kg/injection, schedule: Q01DX009 (ip), vehicle: Klucel (hydroxypropylcellulose) (HPC)) was 96 % of control.

For `CC(=O)NCc1ccc(N2C(N)=NC(N)=NC2(C)C)cc1`, the T/C (dose: 25.0 mg/kg/injection, schedule: Q04DX002 (ip), vehicle: saline) was 100 % of control, the T/C (dose: 50.0 mg/kg/injection, schedule: Q04DX002 (ip), vehicle: saline) was 116 % of control and the T/C (dose: 100.0 mg/kg/injection, schedule: Q04DX002 (ip), vehicle: saline) was 100 % of control.

`COc1ccc2c(c1)OC(C)(C)C(c1ccccc1)=C2c1ccc2c(c1)NC(=O)CO2` was tested, and the T/C [1] was 99 % of control, the T/C [2] was 90 % of control and the T/C [3] was 94 % of control.

In the case of `COC(=O)C1=CN2CCc3c([nH]c4ccccc34)C2(C)C2CN3CCc4c([nH]c5ccccc45)C3CC12` (configuration not stated), the T/C (dose: 2.25 mg/kg/injection, schedule: Q01DX009 (ip), vehicle: Klucel (hydroxypropylcellulose) (HPC)) was 98 % of control, the T/C (dose: 4.5 mg/kg/injection, schedule: Q01DX009 (ip), vehicle: Klucel (hydroxypropylcellulose) (HPC)) was 106 % of control and the T/C (dose: 9.0 mg/kg/injection, schedule: Q01DX009 (ip), vehicle: Klucel (hydroxypropylcellulose) (HPC)) was 113 % of control. For the same molecule, the T/C (dose: 18.0 mg/kg/injection, schedule: Q01DX009 (ip), vehicle: Klucel (hydroxypropylcellulose) (HPC)) was 92 % of control and the T/C (dose: 36.0 mg/kg/injection, schedule: Q01DX009 (ip), vehicle: Klucel (hydroxypropylcellulose) (HPC)) was 98 % of control.

With `CCCCN(CCCC)CCC(O)c1cc(C(F)(F)F)nc2c(C(F)(F)F)cccc12` (configuration not stated) the T/C [4] was 104 % of control, the T/C [5] was 114 % of control and the T/C [6] was 100 % of control.

`CC12CCC3C(CCC4CC(OC(=O)Cc5ccc(N(CCCl)CCCl)cc5)CCC43C)C1CCC(=O)N2` (configuration not stated) was tested, and the T/C (dose: 0.75 mg/kg/injection, schedule: Q01DX009 (ip), vehicle: saline with Tween-80) was 112 % of control and 117 % of control, the T/C (dose: 1.5 mg/kg/injection, schedule: Q01DX009 (ip), vehicle: saline with Tween-80) was 111 % of control and 124 % of control and the T/C (dose: 6.0 mg/kg/injection, schedule: Q01DX009 (ip), vehicle: saline with Tween-80) was 169 % of control and 184 % of control. For the same molecule, the T/C (dose: 12.0 mg/kg/injection, schedule: Q01DX009 (ip), vehicle: saline with Tween-80) was 220 % of control and 237 % of control and the T/C (dose: 24.0 mg/kg/injection, schedule: Q01DX009 (ip), vehicle: saline with Tween-80) was 104 % of control and 121 % of control.

In the case of `CC(C)N=C1CCCC1C(=S)SSC(=S)C1CCCC1=NC(C)C` (configuration not stated), the T/C [7] was 99 % of control, the T/C [8] was 99 % of control and the T/C [9] was 100 % of control.

`Cc1cc2c(cc1C)C(=O)C(N1CCOCC1)CCO2` (configuration not stated) was tested, and the T/C (dose: 100.0 mg/kg/injection, schedule: Q04DX003 (ip), vehicle: saline with Tween-80) was 99 % of control, the T/C (dose: 200.0 mg/kg/injection, schedule: Q04DX003 (ip), vehicle: saline with Tween-80) was 99 % of control and the T/C (dose: 400.0 mg/kg/injection, schedule: Q04DX003 (ip), vehicle: saline with Tween-80) was 96 % of control.

In the case of `C=CCNC(=S)Nc1ccccc1C(=O)c1ccccc1`, the T/C [4] was 104 % of control, the T/C [5] was 103 % of control and the T/C [6] was 103 % of control.

Source: PubChem BioAssay AID330 (DTP/NCI, 2004)
